Target: T1, CFTR (Homo sapiens, UniProt P13569, DEL508-508)
T1 construct: Primary CF airway epithelial cells were obtained from the UNC Cystic Fibrosis Tissue Procurement and Cell Culture Core; host or cells: primary CF airway epithelial cells, differentiated at the air-liquid interface
Experiment: Equivalent current assay in primary CF airway epithelial cells (NAUC, combination with 1st site corrector FDL169 or VX-809)
Type: cell-based
Conditions: 37° C., 24 h

[1] = test compound 3 μM in combination with 1st site corrector VX-809 (3 μM)
[2] = test compound 10 μM in combination with 1st site corrector VX-809 (3 μM)
[3] = test compound 1 μM in combination with 1st site corrector FDL169 (3 μM)
[4] = test compound 3 μM in combination with 1st site corrector FDL169 (3 μM)
[5] = test compound 1 μM in combination with 1st site corrector VX-809 (3 μM)

T1 sequence (P13569 with tags, fused parts or gaps DEL508-508): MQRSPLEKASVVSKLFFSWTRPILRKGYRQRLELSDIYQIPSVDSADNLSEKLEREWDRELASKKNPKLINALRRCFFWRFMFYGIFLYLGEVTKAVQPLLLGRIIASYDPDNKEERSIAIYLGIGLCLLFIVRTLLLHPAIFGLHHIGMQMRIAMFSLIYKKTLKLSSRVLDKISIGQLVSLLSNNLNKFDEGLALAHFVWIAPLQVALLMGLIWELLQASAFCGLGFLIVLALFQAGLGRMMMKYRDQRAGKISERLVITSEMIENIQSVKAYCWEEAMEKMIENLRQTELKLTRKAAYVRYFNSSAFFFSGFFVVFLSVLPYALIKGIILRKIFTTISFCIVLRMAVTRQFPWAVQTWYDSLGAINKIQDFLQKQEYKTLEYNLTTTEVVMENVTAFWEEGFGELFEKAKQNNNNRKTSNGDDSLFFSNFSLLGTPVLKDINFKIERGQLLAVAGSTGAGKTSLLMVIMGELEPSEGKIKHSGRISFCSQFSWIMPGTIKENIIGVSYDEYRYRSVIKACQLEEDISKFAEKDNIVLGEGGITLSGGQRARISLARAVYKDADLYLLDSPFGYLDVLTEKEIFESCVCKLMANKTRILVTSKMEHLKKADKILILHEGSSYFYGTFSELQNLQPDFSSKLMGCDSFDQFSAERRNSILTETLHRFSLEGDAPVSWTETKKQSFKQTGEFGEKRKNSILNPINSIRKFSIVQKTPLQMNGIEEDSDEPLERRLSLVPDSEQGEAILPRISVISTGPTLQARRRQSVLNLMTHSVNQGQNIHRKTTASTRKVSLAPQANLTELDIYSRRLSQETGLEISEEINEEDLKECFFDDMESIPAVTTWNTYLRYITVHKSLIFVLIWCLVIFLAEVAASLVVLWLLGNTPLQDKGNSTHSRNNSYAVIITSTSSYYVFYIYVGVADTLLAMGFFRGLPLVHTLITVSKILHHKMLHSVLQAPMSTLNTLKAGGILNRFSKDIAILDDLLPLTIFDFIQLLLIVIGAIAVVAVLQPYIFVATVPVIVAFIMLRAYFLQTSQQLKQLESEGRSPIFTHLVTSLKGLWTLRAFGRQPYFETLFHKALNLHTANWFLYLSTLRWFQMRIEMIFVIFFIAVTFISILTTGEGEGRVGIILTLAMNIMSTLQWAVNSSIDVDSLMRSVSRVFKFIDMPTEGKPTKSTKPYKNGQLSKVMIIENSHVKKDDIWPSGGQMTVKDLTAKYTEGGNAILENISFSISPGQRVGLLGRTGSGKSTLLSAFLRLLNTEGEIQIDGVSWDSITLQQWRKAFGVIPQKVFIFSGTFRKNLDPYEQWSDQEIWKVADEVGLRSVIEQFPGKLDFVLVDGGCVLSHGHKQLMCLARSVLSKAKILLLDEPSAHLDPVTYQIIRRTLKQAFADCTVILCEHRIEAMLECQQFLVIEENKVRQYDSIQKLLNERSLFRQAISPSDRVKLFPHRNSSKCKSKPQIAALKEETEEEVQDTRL

Row | SMILES | Nauc @ 3 μM [1] | Nauc @ 10 μM [2] | Nauc @ 1 μM [3] | Nauc @ 3 μM [4] | Nauc @ 1 μM [5] | Nauc @ 10 μM (test compound 10 μM in combination with 1st site corrector FDL169 (3 μM))
1 | O=C(Nc1cncc(C(F)(F)F)n1)C1C2CC(F)(F)CN2C2(C(=O)Nc3c(Cl)cc(Cl)cc32)C1C(=O)O (stereo not drawn) [Example 23] | ++ (NAUC “++” refers to an observed NAUC 170-140% of positive control) | + (NAUC “+” refers to an observed NAUC <140% of positive control) |  |  |  | 
2 | O=C(Nc1cc(Cl)cc(Cl)c1)C1C(C(F)(F)c2ccncc2)NC2(C(=O)Nc3c(Cl)cc(Cl)cc32)C1C(=O)O (stereo not drawn) [Example 66.9a, 5,7-dichloro-4′-((3,5-dichlorophenyl)carbamoyl)-5′-(difluoro(pyridin-4-yl)methyl)-2-oxospiro[indoline-3,2′-pyrrolidine]-3′-carboxylic acid] |  | + (NAUC “+” refers to an observed NAUC <140% of positive control) |  |  |  | 
3 | Cn1ccc2c(NC(=O)[C@H]3[C@H]4CC(F)(F)CN4[C@]4(C(=O)Nc5c(Cl)cc(Cl)cc54)[C@H]3C(=O)O)cccc21 [Example 141] |  |  | + (NAUC “+” refers to an observed NAUC <140% of positive control) | + (NAUC “+” refers to an observed NAUC <140% of positive control) |  | 
4 | O=C(Nc1ncnc2ccccc12)[C@H]1[C@H]2CC(F)(F)CN2[C@]2(C(=O)Nc3c(Cl)cc(Cl)cc32)[C@H]1C(=O)O [Example 144] |  |  | + (NAUC “+” refers to an observed NAUC <140% of positive control) | + (NAUC “+” refers to an observed NAUC <140% of positive control) |  | 
5 | O=C(Nc1cncc(C(F)(F)F)n1)C1C2CC3(CC3)CN2C2(C(=O)Nc3c(Cl)cc(Cl)cc32)C1C(=O)O (stereo not drawn) [Example 21] | +++ (NAUC “+++” refers to an observed NAUC>170% of positive control) | +++ (NAUC “+++” refers to an observed NAUC>170% of positive control) |  |  |  | 
6 | O=C(Nc1cc(Cl)cc(Cl)c1)C1CN(CC(F)(F)F)C2(C(=O)Nc3c(Cl)cc(Cl)cc32)C1C(=O)O (stereo not drawn) [Example 79c] | + (NAUC “+” refers to an observed NAUC <140% of positive control) | + (NAUC “+” refers to an observed NAUC <140% of positive control) |  |  | + (NAUC “+” refers to an observed NAUC <140% of positive control) | 
7 | O=C(Nc1cc(Cl)cc(Cl)c1)C1C(C(F)(F)c2ccccc2C(F)(F)F)NC2(C(=O)Nc3c(Cl)cc(Cl)cc32)C1C(=O)O (stereo not drawn) [Example 69.a] |  | + (NAUC “+” refers to an observed NAUC <140% of positive control) |  |  |  | 
8 | CN(C(=O)C1C2CC(F)(F)CN2C2(C(=O)Nc3c(Cl)cc(Cl)cc32)C1C(=O)O)c1cc(Cl)cc(Cl)c1 (stereo not drawn) [Example 57] | +++ (NAUC “+++” refers to an observed NAUC>170% of positive control) | +++ (NAUC “+++” refers to an observed NAUC>170% of positive control) |  |  |  | 
9 | Cn1cnc(NC(=O)[C@H]2[C@H]3CC(F)(F)CN3[C@]3(C(=O)Nc4c(Cl)cc(Cl)cc43)[C@H]2C(=O)O)c1 [Example 142] |  |  | + (NAUC “+” refers to an observed NAUC <140% of positive control) | + (NAUC “+” refers to an observed NAUC <140% of positive control) |  | 
10 | COc1cc(C(F)(F)F)cc(NC(=O)C2C3CC(F)(F)CN3C3(C(=O)Nc4c(Cl)cc(Cl)cc43)C2C(=O)O)n1 (single isomer, unassigned) [Example 80.7a.2, 5,7-dichloro-6′,6′-difluoro-1′-((6-methoxy-4-(trifluoromethyl)pyridin-2-yl)carbamoyl)-2-oxo-1′,2′,5′,6′,7′,7a′-hexahydrospiro[indoline-3,3′-pyrrolizine]-2′-carboxylic acid] | +++ (NAUC “+++” refers to an observed NAUC>170% of positive control) | +++ (NAUC “+++” refers to an observed NAUC>170% of positive control) |  |  | + (NAUC “+” refers to an observed NAUC <140% of positive control) | 
11 | CC(C)(C)c1cccc(C(C)(C)CNC(=O)C2C3CC(F)(F)CN3C3(C(=O)Nc4c(Cl)cc(Cl)cc43)C2C(=O)O)c1 (stereo not drawn) [Example 64] |  | +++ (NAUC “+++” refers to an observed NAUC>170% of positive control) |  |  |  | 
12 | CN(C(=O)[C@H]1[C@H]2CC(F)(F)CN2[C@]2(C(=O)Nc3c(Cl)cc(Cl)cc32)[C@H]1C(=O)NCC(F)(F)F)c1cc(Cl)cc(Cl)c1 (single isomer, unassigned) [Example 232b] | + (NAUC “+” refers to an observed NAUC <140% of positive control) | + (NAUC “+” refers to an observed NAUC <140% of positive control) |  |  | + (NAUC “+” refers to an observed NAUC <140% of positive control) | 
13 | Cn1nccc1NC(=O)[C@H]1[C@@H](C(=O)Nc2cc(Cl)cc(Cl)c2)[C@H]2CCCN2[C@]12C(=O)Nc1c(Cl)cc(Cl)cc12 (single isomer, unassigned) [Example 239, (1′R,2′ S,7a′R)-5,7-dichloro-N1′-(3,5-dichlorophenyl)-N2′-(1-methyl-1H-pyrazol-5-yl)-2-oxo-1′,2′,5′,6′,7′,7a′-hexahydrospiro[indoline-3,3′-pyrrolizine]-1′,2′-dicarboxamide] | + (NAUC “+” refers to an observed NAUC <140% of positive control) | + (NAUC “+” refers to an observed NAUC <140% of positive control) |  |  | + (NAUC “+” refers to an observed NAUC <140% of positive control) | 
14 | CN(C(=O)[C@H]1[C@H]2CC(F)(F)CN2[C@]2(C(=O)Nc3c(Cl)cc(Cl)cc32)[C@H]1C(=O)O)c1cccc(C(F)(F)F)c1 [Example 157] |  |  | ++ (NAUC “++” refers to an observed NAUC 170-140% of positive control) | ++ (NAUC “++” refers to an observed NAUC 170-140% of positive control) |  | 
15 | C[C@]1(O)CC2C(C(=O)Nc3cc(Cl)cc(Cl)c3)C(C(=O)NS(C)(=O)=O)C3(C(=O)Nc4c(Cl)cc(Cl)cc43)N2C1 (stereo partly drawn) [Example 247, (6′S)-5,7-dichloro-N1′-(3,5-dichlorophenyl)-6′-hydroxy-6′-methyl-N2′-(methylsulfonyl)-2-oxo-1′,2′,5′,6′,7′,7a′-hexahydrospiro[indoline-3,3′-pyrrolizine]-1′,2′-dicarboxamide] | ++ (NAUC “++” refers to an observed NAUC 170-140% of positive control) | +++ (NAUC “+++” refers to an observed NAUC>170% of positive control) |  |  | + (NAUC “+” refers to an observed NAUC <140% of positive control) | 
16 | CON(C)C(=O)[C@H]1[C@@H](C(=O)Nc2cc(Cl)cc(Cl)c2)[C@H]2CCCN2[C@]12C(=O)Nc1c(Cl)cc(Cl)cc12 (single isomer, unassigned) [Example 241, (1′R,2′ S,7a′R)-5,7-dichloro-N1′-(3,5-dichlorophenyl)-N2′-methoxy-N2′-methyl-2-oxo-1′,2′,5′,6′,7′,7a′-hexahydrospiro[indoline-3,3′-pyrrolizine]-1′,2′-dicarboxamide] | +++ (NAUC “+++” refers to an observed NAUC>170% of positive control) | ++ (NAUC “++” refers to an observed NAUC 170-140% of positive control) |  |  | ++ (NAUC “++” refers to an observed NAUC 170-140% of positive control) | 
17 | O=C(O)[C@H]1[C@@H](C(=O)N(CC2CC2)c2cccc(-c3ccccc3)c2)[C@H]2CC(F)(F)CN2[C@]12C(=O)Nc1c(Cl)cc(Cl)cc12 [Example 156] |  |  | +++ (NAUC “+++” refers to an observed NAUC>170% of positive control) | +++ (NAUC “+++” refers to an observed NAUC>170% of positive control) |  | ++ (NAUC “++” refers to an observed NAUC 170-140% of positive control)
18 | O=C(Nc1ccc2ncccc2c1)[C@H]1[C@H]2CC(F)(F)CN2[C@]2(C(=O)Nc3c(Cl)cc(Cl)cc32)[C@H]1C(=O)O [Example 120] | + (NAUC “+” refers to an observed NAUC <140% of positive control) | + (NAUC “+” refers to an observed NAUC <140% of positive control) |  |  | + (NAUC “+” refers to an observed NAUC <140% of positive control) | 
19 | O=C(Nc1cc(Cl)cc(Cl)c1)C1C2C[C@@](O)(C(F)(F)F)CN2C2(C(=O)Nc3c(Cl)cc(Cl)cc32)C1C(=O)O (stereo partly drawn) [Example 56] | +++ (NAUC “+++” refers to an observed NAUC>170% of positive control) | +++ (NAUC “+++” refers to an observed NAUC>170% of positive control) |  |  |  | 
20 | CN(C(=O)N1C(=O)C2(c3cc(Cl)cc(Cl)c31)C(C(=O)OCOC(=O)C(C)(C)C)CC1CC(F)(F)CN12)c1cc(Cl)cc(Cl)c1 (single isomer, unassigned) [Example 251b, (pivaloyloxy)methyl 5,7-dichloro-1-((3,5-dichlorophenyl)(methyl)carbamoyl)-6′,6′-difluoro-2-oxo-1′,2′,5′,6′,7′,7a′-hexahydrospiro[indoline-3,3′-pyrrolizine]-2′-carboxylate] |  | + (NAUC “+” refers to an observed NAUC <140% of positive control) |  |  |  | 
21 | Cc1ccccc1C(F)(F)C1NC2(C(=O)Nc3c(Cl)cc(Cl)cc32)C(C(=O)O)C1C(=O)Nc1cc(Cl)cc(Cl)c1 (stereo not drawn) [Example 61] | +++ (NAUC “+++” refers to an observed NAUC>170% of positive control) | +++ (NAUC “+++” refers to an observed NAUC>170% of positive control) |  |  |  | 
22 | C[C@]1(O)CC2C(C(=O)Nc3cc(C(F)(F)F)cc(C(F)(F)F)n3)C(C(=O)O)C3(C(=O)Nc4c(Cl)cc(Cl)cc43)N2C1 (stereo partly drawn) [Example 5] | +++ (NAUC “+++” refers to an observed NAUC>170% of positive control) | +++ (NAUC “+++” refers to an observed NAUC>170% of positive control) |  |  |  | 
